Experiments:
[1] = tested on: antibodies in sera from SARS patients (sera 1a, 1b, 2, 6, 37, 62, London, SARS-yellow, SARS-green); format: binding, human; parameters: Binding of serum 6 to linear peptides of protein X1 of SARS-CoV Urbani / Binding of serum 37 to linear peptides of protein X1 of SARS-CoV Urbani / Binding of serum 6 to looped/cyclic peptide (PEPSCAN-ELISA) / Binding of serum 37 to looped/cyclic peptide (PEPSCAN-ELISA) / Binding of serum 37 to looped/cyclic peptides of protein X1 of SARS-CoV Urbani / Binding of serum 6 to linear peptides of protein X2 / Binding of serum 37 to linear peptides of protein X2 / Binding of serum 37 to looped/cyclic peptides of protein X2 of SARS-CoV Urbani / Binding of serum 6 to linear peptides of protein M of SARS-CoV Urbani / Binding of serum 37 to linear peptides of protein M of SARS-CoV Urbani / Binding of serum 6 to looped/cyclic peptides of protein M of SARS-CoV Urbani / Binding of serum 37 to looped/cyclic peptides of protein M of SARS-CoV Urbani / Binding of serum 6 to linear peptides of protein X3 of SARS-CoV Urbani / Binding of serum 37 to linear peptides of protein X3 of SARS-CoV Urbani / Binding of serum 37 to looped/cyclic peptides of protein X3 of SARS-CoV Urbani / Binding of serum 6 to linear peptides of protein X4 of SARS-CoV Urbani / Binding of serum 37 to linear peptides of protein X4 of SARS-CoV Urbani / Binding of serum 37 to looped/cyclic peptides of protein X4 of SARS-CoV Urbani / Binding of serum 6 to linear peptides of protein X5 of SARS-CoV Urbani / Binding of serum 37 to linear peptides of protein X5 of SARS-CoV Urbani / Binding of serum 37 to looped/cyclic peptides of protein X5 of SARS-CoV Urbani / Binding of serum 6 to linear peptides of protein N of SARS-CoV Urbani / Binding of serum 37 to linear peptides of protein N of SARS-CoV Urbani / Binding of serum 6 to linear peptide (PEPSCAN-ELISA) / Binding of serum 1a to looped/cyclic peptides of protein N of SARS-CoV Urbani / Binding of serum 1b to looped/cyclic peptides of protein N of SARS-CoV Urbani / Binding of serum 2 to looped/cyclic peptides of protein N of SARS-CoV Urbani / Binding of serum 6 to looped/cyclic peptides of protein N of SARS-CoV Urbani / Binding of serum 37 to looped/cyclic peptides of protein N of SARS-CoV Urbani / Binding of serum 62 to looped/cyclic peptides of protein N of SARS-CoV Urbani / Binding of serum London to looped/cyclic peptides of protein N of SARS-CoV Urbani / Binding of serum SARS-green to looped/cyclic peptides of protein N of SARS-CoV Urbani: unit not given here
[2] = tested on: control sera (pooled serum of ten healthy LUMC hospital workers; commercial negative donor pooled serum from the Dutch bloodbank); format: binding, human; parameters: Binding of Control serum LUMC to linear peptides / Binding of Control serum Blood-bank to linear peptides / Binding of Control serum LUMC to looped peptides / Binding of Control Serum Blood-Bank to Looped peptides / Binding of Control serum LUMC to linear peptides of the protein M of SARS-CoV Urbani / Binding of Control serum Blood-bank to linear peptides of the protein M of SARS-CoV Urbani / Binding of Control serum LUMC to looped peptides of the protein M of SARS-CoV Urbani / Binding of Control Serum Blood-Bank to Looped peptides of the protein M of SARS-CoV Urbani: unit not given here
[3] = tested on: rabbit serum obtained by immunizing a rabbit with the SARS-CoV strain Frankfurt 1; format: binding; parameters: Binding of a rabbit serum to linear peptides / Binding of a rabbit serum to looped peptides / Rabbit serum linear peptides / Rabbit serum looped peptides / Binding of a rabbit serum to linear peptides of protein N of SARS-CoV Urbani (Rabbit serum linear peptides) / Binding of a rabbit serum to looped/cyclic peptides of protein N of SARS-CoV Urbani (Rabbit serum looped peptides): unit not given here

For TLACFVLAAVYRINW, the “Binding of serum 1a to linear peptides of protein M of SARS-CoV Urbani” value [1] was 0.7, the “Binding of serum 1a to looped/cyclic peptides of protein M of SARS-CoV Urbani” value [1] was 0.7 and the “Binding of serum 1b to linear peptides of protein M of SARS-CoV Urbani” value [1] was 0.5. The “Binding of serum 1b to looped/cyclic peptides of protein M of SARS-CoV Urbani” value [1] was 0.5, the “Binding of serum 2 to linear peptides of protein M of SARS-CoV Urbani” value [1] was 0.5 and the “Binding of serum 2 to looped/cyclic peptides of protein M of SARS-CoV Urbani” value [1] was 0.6. For the same sequence, the “Binding of serum 6 to linear peptides of protein M of SARS-CoV Urbani” value [1] was 0.3, the “Binding of serum 6 to looped/cyclic peptides of protein M of SARS-CoV Urbani” value [1] was 0.7 and the “Binding of serum 37 to linear peptides of protein M of SARS-CoV Urbani” value [1] was 0.8. The “Binding of serum 37 to looped/cyclic peptides of protein M of SARS-CoV Urbani” value [1] was 0.6, the “Binding of serum 62 to linear peptides of protein M of SARS-CoV Urbani” value [1] was 0.8 and the “Binding of serum 62 to looped/cyclic peptides of protein M of SARS-CoV Urbani” value [1] was 0.6. The “Binding of serum London to linear peptides of protein M of SARS-CoV Urbani” value [1] was 0.3, the “Binding of serum London to looped/cyclic peptides of protein M of SARS-CoV Urbani” value [1] was 0.3 and the “Binding of serum SARS-green to linear peptides of protein M of SARS-CoV Urbani” value [1] was 0.3. For the same sequence, the “Binding of serum SARS-green to looped/cyclic peptides of protein M of SARS-CoV Urbani” value [1] was 0.2, the “Binding of serum SARS-yellow to linear peptides of protein M of SARS-CoV Urbani” value [1] was 0.0 and the “Binding of serum SARS-yellow to looped/cyclic peptides of protein M of SARS-CoV Urbani” value [1] was 0.5. For the same sequence, the “Binding of Control Serum Blood-Bank to Looped peptides of the protein M of SARS-CoV Urbani” value [2] was 0.8, the “Binding of Control serum Blood-bank to linear peptides of the protein M of SARS-CoV Urbani” value [2] was 0.5 and the “Binding of Control serum LUMC to linear peptides of the protein M of SARS-CoV Urbani” value [2] was 0.2. The “Binding of Control serum LUMC to looped peptides of the protein M of SARS-CoV Urbani” value [2] was 0.7, the “Rabbit serum linear peptides” value [3] was 0.5 and the “Rabbit serum looped peptides” value [3] was 0.1.
In the case of TLIVFTSCELYHYQE, the “Binding of serum 1a to linear peptides of protein X4 of SARS-CoV Urbani” value [1] is reported as 0.8, the “Binding of serum 1a to looped/cyclic peptides of protein X4 of SARS-CoV Urbani” value [1] is reported as 0.8 and the “Binding of serum 1b to linear peptides of protein X4 of SARS-CoV Urbani” value [1] is reported as 0.8. The “Binding of serum 1b to looped/cyclic peptides of protein X4 of SARS-CoV Urbani” value [1] was 0.8, the “Binding of serum 2 to linear peptides of protein X4 of SARS-CoV Urbani” value [1] was 0.5 and the “Binding of serum 2 to looped/cyclic peptides of protein X4 of SARS-CoV Urbani” value [1] was 0.8. The “Binding of serum 6 to linear peptides of protein X4 of SARS-CoV Urbani” value [1] was 0.6, the “Binding of serum 6 to looped/cyclic peptides of protein X4 of SARS-CoV Urbani” value [1] was 0.6 and the “Binding of serum 37 to linear peptides of protein X4 of SARS-CoV Urbani” value [1] was 0.9. For the same sequence, the “Binding of serum 37 to looped/cyclic peptides of protein X4 of SARS-CoV Urbani” value [1] was 0.9, the “Binding of serum 62 to linear peptides of protein X4 of SARS-CoV Urbani” value [1] was 0.9 and the “Binding of serum 62 to looped/cyclic peptides of protein X4 of SARS-CoV Urbani” value [1] was 0.8. For the same sequence, the “Binding of serum London to linear peptides of protein X4 of SARS-CoV Urbani” value [1] was 0.8, the “Binding of serum London to looped/cyclic peptides of protein X4 of SARS-CoV Urbani” value [1] was 0.3 and the “Binding of serum SARS-green to linear peptides of protein X4 of SARS-CoV Urbani” value [1] was 1.1. The “Binding of serum SARS-green to looped/cyclic peptides of protein X4 of SARS-CoV Urbani” value [1] was 1.0, the “Binding of serum SARS-yellow to linear peptides of protein X4 of SARS-CoV Urbani” value [1] was 0.6 and the “Binding of serum SARS-yellow to looped/cyclic peptides of protein X4 of SARS-CoV Urbani” value [1] was 0.9. The “Binding of Control Serum Blood-Bank to Looped peptides” value [2] was 0.7, the “Binding of Control serum Blood-bank to linear peptides” value [2] was 0.7 and the “Binding of Control serum LUMC to linear peptides” value [2] was 0.8. The “Binding of Control serum LUMC to looped peptides” value [2] was 1.0, the “Rabbit serum linear peptides” value [3] was 0.5 and the “Rabbit serum looped peptides” value [3] was 0.8.
For TLVLKMLHSSSLTSL, the “Binding of serum 1a to linear peptides of protein X2” value [1] was 0.7, the “Binding of serum 1a to looped/cyclic peptides of protein X2 of SARS-CoV Urbani” value [1] was 0.7 and the “Binding of serum 1b to linear peptides of protein X2” value [1] was 0.5. The “Binding of serum 1b to looped/cyclic peptides of protein X2 of SARS-CoV Urbani” value [1] was 0.6, the “Binding of serum 2 to linear peptides of protein X2” value [1] was 0.4 and the “Binding of serum 2 to looped/cyclic peptides of protein X2 of SARS-CoV Urbani” value [1] was 0.5. For the same sequence, the “Binding of serum 6 to linear peptides of protein X2” value [1] was 0.4, the “Binding of serum 6 to looped/cyclic peptides of protein X2 of SARS-CoV Urbani” value [1] was 1.0 and the “Binding of serum 37 to linear peptides of protein X2” value [1] was 0.5. The “Binding of serum 37 to looped/cyclic peptides of protein X2 of SARS-CoV Urbani” value [1] was 0.5, the “Binding of serum 62 to linear peptides of protein X2” value [1] was 0.6 and the “Binding of serum 62 to looped/cyclic peptides of protein X2 of SARS-CoV Urbani” value [1] was 0.7. The “Binding of serum London to linear peptides of protein X2” value [1] was 0.4, the “Binding of serum London to looped/cyclic peptides of protein X2 of SARS-CoV Urbani” value [1] was 1.0 and the “Binding of serum SARS-green to linear peptides of protein X2” value [1] was 0.4. For the same sequence, the “Binding of serum SARS-green to looped/cyclic peptides of protein X2 of SARS-CoV Urbani” value [1] was 0.3, the “Binding of serum SARS-yellow to linear peptides of protein X2” value [1] was 0.4 and the “Binding of serum SARS-yellow to looped/cyclic peptides of protein X2 of SARS-CoV Urbani” value [1] was 0.5. The “Binding of Control Serum Blood-Bank to Looped peptides” value [2] was 0.9, the “Binding of Control serum Blood-bank to linear peptides” value [2] was 0.9 and the “Binding of Control serum LUMC to linear peptides” value [2] was 0.5. For the same sequence, the “Binding of Control serum LUMC to looped peptides” value [2] was 0.7, the “Binding of a rabbit serum to linear peptides” value [3] was 0.2 and the “Binding of a rabbit serum to looped peptides” value [3] was 0.4.

From patent publication US20070128217A1 (priority 2003, published 2007)
